Assay results: patent publication US20250026778A1 (TIUMBIO CO., LTD., priority 2021, published 2025)

Target: T1, his-galectin-3 (Homo sapiens, UniProt P17931)
T1 construct: purchased Abcam
Assay: TR-FRET assay (in vitro galectin-3 binding inhibitory activity test)
Details: Table 2; compound at 20 μM; 60 nM his-galectin-3, 15 nM biotin-ASF; read-out: % Inhibitory activity (at 20 μM)
In short: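 Compound is premixed with his-galectin-3 (60 nM final), then biotin-ASF (15 nM), Tb anti-His antibody (2 nM) and streptavidin-d2 (20 nM) are added. After at least 3.5 hours at RT in HEPES/NaCl buffer with Tween 20 and BSA, TR-FRET is read at 615/665 nm. DMSO serves as the uninhibited control, ASF omission as background.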

T1 sequence (P17931 whole entry): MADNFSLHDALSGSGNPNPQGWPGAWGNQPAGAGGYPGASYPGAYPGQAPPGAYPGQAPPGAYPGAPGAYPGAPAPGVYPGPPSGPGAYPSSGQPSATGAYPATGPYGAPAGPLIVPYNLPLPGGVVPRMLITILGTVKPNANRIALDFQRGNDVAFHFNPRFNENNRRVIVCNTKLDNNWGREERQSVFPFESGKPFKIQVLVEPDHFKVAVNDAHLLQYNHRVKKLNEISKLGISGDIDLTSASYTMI

| Compound | inhibition at 20 µM |
| --- | --- |
| O=C(N[C@@H]1CCO[C@]12O[C@H](CO)[C@H](O)[C@H](n1cc(-c3cc(F)c(F)c(F)c3)nn1)[C@H]2O)c1cc2ccccc2cc1Cl [Compound A201, 3-chloro-N-((4R,5S,7R,8R,9S,10R)-8,10-dihydroxy-7-(hydroxymethyl)-9-(4-(3,4,5-trifluorophenyl)-1H-1,2,3-triazol-1-yl)-1,6-dioxaspiro[4.5]decan-4-yl)-2-naphthamide] | > 75% |
| OC[C@H]1O[C@]2(OCC[C@H]2/N=C\c2c(O)ccc3ccccc23)[C@H](O)[C@@H](n2cc(-c3cc(F)c(F)c(F)c3)nn2)[C@H]1O [Compound A202, (4R,5S,7R,8R,9S,10R)-7-(hydroxymethyl)-4-((Z)-((2-hydroxynaphthalen-1-yl)methylene)amino)-9-(4-(3,4,5-trifluorophenyl)-1H-1,2,3-triazol-1-yl)-1,6-dioxaspiro[4.5]decane-8,10-diol] | < 25% |
| OC[C@H]1O[C@]2(OCC[C@H]2/N=C\c2ccc3ccccc3c2O)[C@H](O)[C@@H](n2cc(-c3cc(F)c(F)c(F)c3)nn2)[C@H]1O [Compound A203, (4R,5S,7R,8R,9S,10R)-7-(hydroxymethyl)-4-((Z)-((1-hydroxynaphthalen-2-yl)methylene)amino)-9-(4-(3,4,5-trifluorophenyl)-1H-1,2,3-triazol-1-yl)-1,6-dioxaspiro[4.5]decane-8,10-diol] | 25 to 50% |
| OC[C@H]1O[C@]2(OCC[C@H]2Nc2ccccc2)[C@H](O)[C@@H](n2cc(-c3cc(F)c(F)c(F)c3)nn2)[C@H]1O [Compound A206, (4R,5S,7R,8R,9S,10R)-7-(hydroxymethyl)-4-(phenylamino)-9-(4-(3,4,5-trifluorophenyl)-1H-1,2,3-triazol-1-yl)-1,6-dioxaspiro[4.5]decane-8,10-diol] | > 75% |
| O=C(N[C@@H]1CCO[C@]12O[C@H](CO)[C@H](O)[C@H](n1cc(-c3cc(F)c(F)c(F)c3)nn1)[C@H]2O)c1ccnc2ccccc12 [Compound A207, N-((4R,5S,7R,8R,9S,10R)-8,10-dihydroxy-7-(hydroxymethyl)-9-(4-(3,4,5-trifluorophenyl)-1H-1,2,3-triazol-1-yl)-1,6-dioxaspiro[4.5]decan-4-yl)quinoline-4-carboxamide] | > 75% |
| O=C(N[C@@H]1CCO[C@]12O[C@H](CO)[C@H](O)[C@H](n1cc(-c3cc(F)c(F)c(F)c3)nn1)[C@H]2O)c1cccc2ncc(Br)cc12 [Compound A208, 3-bromo-N-((4R,5S,7R,8R,9S,10R)-8,10-dihydroxy-7-(hydroxymethyl)-9-(4-(3,4,5-trifluorophenyl)-1H-1,2,3-triazol-1-yl)-1,6-dioxaspiro[4.5]decan-4-yl)quinoline-5-carboxamide] | > 75% |
| O=C(N[C@@H]1CCO[C@]12O[C@H](CO)[C@H](O)[C@H](n1cc(-c3cc(F)c(F)c(F)c3)nn1)[C@H]2O)c1ccnc2ccc(Br)cc12 [Compound A209, 6-bromo-N-((4R,5S,7R,8R,9S,10R)-8,10-dihydroxy-7-(hydroxymethyl)-9-(4-(3,4,5-trifluorophenyl)-1H-1,2,3-triazol-1-yl)-1,6-dioxaspiro[4.5]decan-4-yl)quinoline-4-carboxamide] | > 75% |
| O=C(N[C@@H]1CCO[C@]12O[C@H](CO)[C@H](O)[C@H](n1cc(-c3cc(F)c(F)c(F)c3)nn1)[C@H]2OCc1nn[nH]n1)c1ccc(F)c2ccccc12 [Compound A210, N-((4R,5S,7R,8R,9S,10R)-10-((2H-tetrazol-5-yl)methoxy)-8-hydroxy-7-(hydroxymethyl)-9-(4-(3,4,5-trifluorophenyl)-1H-1,2,3-triazol-1-yl)-1,6-dioxaspiro[4.5]decan-4-yl)-4-fluoro-1-naphthamide] | > 75% |
| O=C(N[C@@H]1CCO[C@]12O[C@H](CO)[C@H](O)[C@H](n1cc(-c3cc(F)c(F)c(F)c3)nn1)[C@H]2O)c1cccc2ccc(Br)cc12 [Compound A211, 7-bromo-N-((4R,5S,7R,8R,9S,10R)-8,10-dihydroxy-7-(hydroxymethyl)-9-(4-(3,4,5-trifluorophenyl)-1H-1,2,3-triazol-1-yl)-1,6-dioxaspiro[4.5]decan-4-yl)-1-naphthamide] | > 75% |
| O=C(N[C@@H]1CCO[C@]12O[C@H](CO)[C@H](O)[C@H](n1cc(-c3cc(F)c(F)c(F)c3)nn1)[C@H]2O)c1cccc2ncccc12 [Compound A212, N-((4R,5S,7R,8R,9S,10R)-8,10-dihydroxy-7-(hydroxymethyl)-9-(4-(3,4,5-trifluorophenyl)-1H-1,2,3-triazol-1-yl)-1,6-dioxaspiro[4.5]decan-4-yl)quinoline-5-carboxamide] | > 75% |
| O=C(N[C@@H]1CCO[C@]12O[C@H](CO)[C@H](O)[C@H](n1cc(-c3cc(F)c(F)c(F)c3)nn1)[C@H]2O)c1ccc(Br)c2ncccc12 [Compound A213, 8-bromo-N-((4R,5S,7R,8R,9S,10R)-8,10-dihydroxy-7-(hydroxymethyl)-9-(4-(3,4,5-trifluorophenyl)-1H-1,2,3-triazol-1-yl)-1,6-dioxaspiro[4.5]decan-4-yl)quinoline-5-carboxamide] | 50 to 75% |
| CC1CO[C@@]2(C1)O[C@H](CO)[C@H](O)[C@H](n1cc(-c3cc(F)c(F)c(F)c3)nn1)[C@H]2O (stereo partly drawn) [Compound A214, (5S,7R,8R,9S,10R)-7-(hydroxymethyl)-3-methyl-9-(4-(3,4,5-trifluorophenyl)-1H-1,2,3-triazol-1-yl)-1,6-dioxaspiro[4.5]decane-8,10-diol] | 50 to 75% |
| O=C(Nc1cccc(Cl)c1)N[C@@H]1CCO[C@]12O[C@H](CO)[C@H](O)[C@H](n1cc(-c3cc(F)c(F)c(F)c3)nn1)[C@H]2O [Compound A215, 1-(3-chlorophenyl)-3-((4R,5S,7R,8R,9S,10R)-8,10-dihydroxy-7-(hydroxymethyl)-9-(4-(3,4,5-trifluorophenyl)-1H-1,2,3-triazol-1-yl)-1,6-dioxaspiro[4.5]decan-4-yl)urea] | > 75% |
| O=C(N[C@@H]1CCO[C@]12O[C@H](CO)[C@H](O)[C@H](n1cc(-c3cc(F)c(F)c(F)c3)nn1)[C@H]2O)c1cccc2ncc(F)cc12 [Compound A216, N-((4R,5S,7R,8R,9S,10R)-8,10-dihydroxy-7-(hydroxymethyl)-9-(4-(3,4,5-trifluorophenyl)-1H-1,2,3-triazol-1-yl)-1,6-dioxaspiro[4.5]decan-4-yl)-3-fluoroquinoline-5-carboxamide] | > 75% |
| O=C(N[C@@H]1CCO[C@]12O[C@H](CO)[C@H](O)[C@H](n1cc(-c3cc(F)c(F)c(F)c3)nn1)[C@H]2O)c1cccc2ncc(Cl)cc12 [Compound A217, 3-chloro-N-((4R,5S,7R,8R,9S,10R)-8,10-dihydroxy-7-(hydroxymethyl)-9-(4-(3,4,5-trifluorophenyl)-1H-1,2,3-triazol-1-yl)-1,6-dioxaspiro[4.5]decan-4-yl)quinoline-5-carboxamide] | > 75% |
| Cc1oc2ccccc2c1C(=O)N[C@@H]1CCO[C@]12O[C@H](CO)[C@H](O)[C@H](n1cc(-c3cc(F)c(F)c(F)c3)nn1)[C@H]2O [Compound A218, N-((4R,5S,7R,8R,9S,10R)-8,10-dihydroxy-7-(hydroxymethyl)-9-(4-(3,4,5-trifluorophenyl)-1H-1,2,3-triazol-1-yl)-1,6-dioxaspiro[4.5]decan-4-yl)-2-methylbenzofuran-3-carboxamide] | > 75% |
| O=C(N[C@@H]1CCO[C@]12O[C@H](CO)[C@H](O)[C@H](n1cc(-c3cc(F)c(F)c(F)c3)nn1)[C@H]2O)c1c[nH]c2ccc(Cl)cc12 [Compound A219, 5-chloro-N-((4R,5S,7R,8R,9S,10R)-8,10-dihydroxy-7-(hydroxymethyl)-9-(4-(3,4,5-trifluorophenyl)-1H-1,2,3-triazol-1-yl)-1,6-dioxaspiro[4.5]decan-4-yl)-1H-indole-3-carboxamide] | 50 to 75% |
| OC[C@H]1O[C@@]2(CCCN(c3cccc4ccccc34)C2)[C@H](O)[C@@H](n2cc(-c3cc(F)c(F)c(F)c3)nn2)[C@H]1O [Compound A220, (2R,3R,4S,5R,6R)-2-(hydroxymethyl)-8-(naphthalen-1-yl)-4-(4-(3,4,5-trifluorophenyl)-1H-1,2,3-triazol-1-yl)-1-oxa-8-azaspiro[5.5]undecane-3,5-diol] | < 25% |
| OC[C@H]1O[C@@]2(CCCN(c3ccccc3Cl)C2)[C@H](O)[C@@H](n2cc(-c3cc(F)c(F)c(F)c3)nn2)[C@H]1O [Compound A222, (2R,3R,4S,5R,6R)-8-(2-chlorophenyl)-2-(hydroxymethyl)-4-(4-(3,4,5-trifluorophenyl)-1H-1,2,3-triazol-1-yl)-1-oxa-8-azaspiro[5.5]undecane-3,5-diol] | < 25% |

Same assay, conditions: Table 3, found values; compound at 20 μM; 60 nM his-galectin-3, 15 nM biotin-ASF; read-out: % Inhibitory activity (at 20 μM)

| Compound | inhibition at 20 µM |
| --- | --- |
| O=C(N[C@@H]1CCO[C@]12O[C@H](CO)[C@H](O)[C@H](n1cc(-c3cc(F)c(F)c(F)c3)nn1)[C@H]2OCc1nn[nH]n1)c1ccc(F)c2ccccc12 [Compound A210, N-((4R,5S,7R,8R,9S,10R)-10-((2H-tetrazol-5-yl)methoxy)-8-hydroxy-7-(hydroxymethyl)-9-(4-(3,4,5-trifluorophenyl)-1H-1,2,3-triazol-1-yl)-1,6-dioxaspiro[4.5]decan-4-yl)-4-fluoro-1-naphthamide] | 90.6% |

Same assay, conditions: read-out: % Inhibitory activity (at 20 μM), Table 2; compound at 20 μM; 60 nM his-galectin-3, 15 nM biotin-ASF

| Compound | inhibition at 20 µM |
| --- | --- |
| OC[C@H]1O[C@]2(OCC[C@H]2n2cc(-c3ccccc3Cl)nn2)[C@H](O)[C@@H](n2cc(-c3cc(F)c(F)c(F)c3)nn2)[C@H]1O [Compound A204, (4R,5S,7R,8R,9S,10R)-4-(4-(2-chlorophenyl)-1H-1,2,3-triazol-1-yl)-7-(hydroxymethyl)-9-(4-(3,4,5-trifluorophenyl)-1H-1,2,3-triazol-1-yl)-1,6-dioxaspiro[4.5]decane-8,10-diol] | < 25% |
| OC[C@H]1O[C@]2(OCC[C@H]2n2cc(-c3cccc(Cl)c3)nn2)[C@H](O)[C@@H](n2cc(-c3cc(F)c(F)c(F)c3)nn2)[C@H]1O [Compound A205, (4R,5S,7R,8R,9S,10R)-4-(4-(3-chlorophenyl)-1H-1,2,3-triazol-1-yl)-7-(hydroxymethyl)-9-(4-(3,4,5-trifluorophenyl)-1H-1,2,3-triazol-1-yl)-1,6-dioxaspiro[4.5]decane-8,10-diol] | < 25% |
